# From US8802597B2, “Herbicidal pyrimidines” (E I du Pont de Nemours and Company, priority 2003, dated 2014)
# Assays:
# Test in all cases: Test G pre/postemergence
# Format in all cases: in vivo
# [1] = tested on: quackgrass (Elytrigia repens)
# Procedure, shortened: (§1)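 Test chemicals in non-phytotoxic solvent with surfactant applied preemergence to sown seeds or nutlets and postemergence to plants 2–18 cm tall (1- to 4-leaf stage). Greenhouse-held 12–21 days, then visually rated against untreated controls on a 0 (no effect) to 100 (complete control) scale.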
# [2] = tested on: Surinam grass (Brachiaria decumbens)
# Procedure, shortened: as §1
# [3] = tested on: dallisgrass (Paspalum dilatatum)
# Procedure, shortened: as §1
# [4] = tested on: goosegrass (Eleusine indica)
# Procedure, shortened: as §1
# [5] = tested on: downy bromegrass (Bromus tectorum)
# Procedure, shortened: as §1
# [6] = tested on: guineagrass (Panicum maximum)
# Procedure, shortened: as §1
# [7] = tested on: field bindweed (Convolvulus arvensis)
# Procedure, shortened: as §1
# [8] = tested on: common chickweed (Stellaria media)
# Procedure, shortened: as §1
# [9] = tested on: bermudagrass (Cynodon dactylon)
# Procedure, shortened: as §1
# [10] = tested on: common ragweed (Ambrosia elatior)
# Procedure, shortened: as §1
# [11] = Postemergence, 250 g ai/ha, scale 0 to 100
# [12] = Postemergence, 16 g ai/ha, scale 0 to 100
# [13] = Postemergence, 31 g ai/ha, scale 0 to 100
# [14] = Postemergence, 62 g ai/ha, scale 0 to 100
# [15] = Postemergence, 125 g ai/ha, scale 0 to 100
# [16] = Preemergence, 16 g ai/ha, scale 0-100
# [17] = Preemergence, 31 g ai/ha, scale 0-100
# [18] = Preemergence, 62 g ai/ha, scale 0-100
# [19] = Preemergence, 125 g ai/ha, scale 0-100
# [20] = Preemergence, 250 g ai/ha, scale 0-100
# [21] = Postemergence, 8 g ai/ha, scale 0 to 100
# [22] = Preemergence, 8 g ai/ha, scale 0-100
smiles,measurement,setting,value
"Nc1nc(C2CC2)nc(C(=O)OCc2ccccc2)c1Br [Compound 22, phenylmethyl 6-amino-5-bromo-2-cyclopropyl-4-pyrimidinecarboxylate]","Plant response rating, Quackgrass",[1]; [11],85
same,"Plant response rating, Quackgrass",[1]; [12],15
same,"Plant response rating, Quackgrass",[1]; [13],40
same,"Plant response rating, Quackgrass",[1]; [14],65
same,"Plant response rating, Quackgrass",[1]; [15],75
same,"Plant response rating, Quackgrass",[1]; [16],0
same,"Plant response rating, Quackgrass",[1]; [17],0
same,"Plant response rating, Quackgrass",[1]; [18],20
same,"Plant response rating, Quackgrass",[1]; [19],20
same,"Plant response rating, Quackgrass",[1]; [20],30
same,"Plant response rating, Surinam Grass",[2]; [11],95
same,"Plant response rating, Surinam Grass",[2]; [12],0
same,"Plant response rating, Surinam Grass",[2]; [13],15
same,"Plant response rating, Surinam Grass",[2]; [14],35
same,"Plant response rating, Surinam Grass",[2]; [15],65
same,"Plant response rating, Surinam Grass",[2]; [16],0
same,"Plant response rating, Surinam Grass",[2]; [17],0
same,"Plant response rating, Surinam Grass",[2]; [18],0
same,"Plant response rating, Surinam Grass",[2]; [19],35
same,"Plant response rating, Surinam Grass",[2]; [20],90
same,"Plant response rating, Dallisgrass",[3]; [11],75
same,"Plant response rating, Dallisgrass",[3]; [12],0
same,"Plant response rating, Dallisgrass",[3]; [13],0
same,"Plant response rating, Dallisgrass",[3]; [14],15
same,"Plant response rating, Dallisgrass",[3]; [15],25
same,"Plant response rating, Dallisgrass",[3]; [16],0
same,"Plant response rating, Dallisgrass",[3]; [17],0
same,"Plant response rating, Dallisgrass",[3]; [18],0
same,"Plant response rating, Dallisgrass",[3]; [19],40
same,"Plant response rating, Dallisgrass",[3]; [20],50
same,"Plant response rating, Goosegrass",[4]; [11],50
same,"Plant response rating, Goosegrass",[4]; [12],5
same,"Plant response rating, Goosegrass",[4]; [13],15
same,"Plant response rating, Goosegrass",[4]; [14],25
same,"Plant response rating, Goosegrass",[4]; [15],35
same,"Plant response rating, Goosegrass",[4]; [16],0
same,"Plant response rating, Goosegrass",[4]; [17],0
same,"Plant response rating, Goosegrass",[4]; [18],0
same,"Plant response rating, Goosegrass",[4]; [19],0
same,"Plant response rating, Goosegrass",[4]; [20],0
same,"Plant response rating, Bromegrass, Downy",[5]; [11],95
same,"Plant response rating, Bromegrass, Downy",[5]; [12],15
same,"Plant response rating, Bromegrass, Downy",[5]; [13],65
same,"Plant response rating, Bromegrass, Downy",[5]; [14],85
same,"Plant response rating, Bromegrass, Downy",[5]; [15],95
same,"Plant response rating, Bromegrass, Downy",[5]; [16],0
same,"Plant response rating, Bromegrass, Downy",[5]; [17],0
same,"Plant response rating, Bromegrass, Downy",[5]; [18],0
same,"Plant response rating, Bromegrass, Downy",[5]; [19],20
same,"Plant response rating, Bromegrass, Downy",[5]; [20],75
same,"Plant response rating, Guineagrass",[6]; [11],100
same,"Plant response rating, Guineagrass",[6]; [12],5
same,"Plant response rating, Guineagrass",[6]; [13],55
same,"Plant response rating, Guineagrass",[6]; [14],65
same,"Plant response rating, Guineagrass",[6]; [15],95
same,"Plant response rating, Guineagrass",[6]; [16],0
same,"Plant response rating, Guineagrass",[6]; [17],35
same,"Plant response rating, Guineagrass",[6]; [18],75
same,"Plant response rating, Guineagrass",[6]; [19],90
same,"Plant response rating, Guineagrass",[6]; [20],95
same,"Plant response rating, Bindweed, Field",[7]; [11],100
same,"Plant response rating, Bindweed, Field",[7]; [12],85
same,"Plant response rating, Bindweed, Field",[7]; [13],100
same,"Plant response rating, Bindweed, Field",[7]; [14],100
same,"Plant response rating, Bindweed, Field",[7]; [15],100
same,"Plant response rating, Bindweed, Field",[7]; [16],65
same,"Plant response rating, Bindweed, Field",[7]; [17],75
same,"Plant response rating, Bindweed, Field",[7]; [18],90
same,"Plant response rating, Bindweed, Field",[7]; [19],90
same,"Plant response rating, Bindweed, Field",[7]; [20],100
same,"Plant response rating, Chickweed",[8]; [11],95
same,"Plant response rating, Chickweed",[8]; [13],50
same,"Plant response rating, Chickweed",[8]; [14],50
same,"Plant response rating, Chickweed",[8]; [15],85
same,"Plant response rating, Chickweed",[8]; [16],0
same,"Plant response rating, Chickweed",[8]; [17],50
same,"Plant response rating, Chickweed",[8]; [19],90
same,"Plant response rating, Chickweed",[8]; [20],100
same,"Plant response rating, Bermudagrass",[9]; [11],65
same,"Plant response rating, Bermudagrass",[9]; [12],15
same,"Plant response rating, Bermudagrass",[9]; [13],35
same,"Plant response rating, Bermudagrass",[9]; [14],35
same,"Plant response rating, Bermudagrass",[9]; [15],40
same,"Plant response rating, Bermudagrass",[9]; [16],0
same,"Plant response rating, Bermudagrass",[9]; [17],0
same,"Plant response rating, Bermudagrass",[9]; [18],0
same,"Plant response rating, Bermudagrass",[9]; [19],0
same,"Plant response rating, Bermudagrass",[9]; [20],30
same,"Plant response rating, Ragweed",[10]; [11],100
same,"Plant response rating, Ragweed",[10]; [12],65
same,"Plant response rating, Ragweed",[10]; [13],85
same,"Plant response rating, Ragweed",[10]; [14],98
same,"Plant response rating, Ragweed",[10]; [15],98
same,"Plant response rating, Ragweed",[10]; [16],65
same,"Plant response rating, Ragweed",[10]; [17],75
same,"Plant response rating, Ragweed",[10]; [18],90
same,"Plant response rating, Ragweed",[10]; [19],95
same,"Plant response rating, Ragweed",[10]; [20],100
"CCOC(=O)c1nc(-c2ccc(Cl)cc2)nc(N)c1Cl [Compound 64, ethyl 6-amino-5-chloro-2-(4-chlorophenyl)-4-pyrimidinecarboxylate]","Plant response rating, Quackgrass",[1]; [21],0
same,"Plant response rating, Quackgrass",[1]; [12],20
same,"Plant response rating, Quackgrass",[1]; [13],20
same,"Plant response rating, Quackgrass",[1]; [14],35
same,"Plant response rating, Quackgrass",[1]; [22],0
same,"Plant response rating, Quackgrass",[1]; [16],0
same,"Plant response rating, Quackgrass",[1]; [17],0
same,"Plant response rating, Quackgrass",[1]; [18],0
same,"Plant response rating, Surinam Grass",[2]; [21],0
same,"Plant response rating, Surinam Grass",[2]; [12],0
same,"Plant response rating, Surinam Grass",[2]; [13],0
same,"Plant response rating, Surinam Grass",[2]; [14],10
same,"Plant response rating, Surinam Grass",[2]; [22],0
same,"Plant response rating, Surinam Grass",[2]; [16],0
same,"Plant response rating, Surinam Grass",[2]; [17],0
same,"Plant response rating, Surinam Grass",[2]; [18],0
same,"Plant response rating, Dallisgrass",[3]; [21],0
same,"Plant response rating, Dallisgrass",[3]; [12],0
same,"Plant response rating, Dallisgrass",[3]; [13],0
same,"Plant response rating, Dallisgrass",[3]; [14],20
same,"Plant response rating, Dallisgrass",[3]; [22],0
same,"Plant response rating, Dallisgrass",[3]; [16],0
same,"Plant response rating, Dallisgrass",[3]; [17],0
same,"Plant response rating, Dallisgrass",[3]; [18],0
same,"Plant response rating, Goosegrass",[4]; [21],0
same,"Plant response rating, Goosegrass",[4]; [12],0
same,"Plant response rating, Goosegrass",[4]; [13],0
same,"Plant response rating, Goosegrass",[4]; [14],20
same,"Plant response rating, Goosegrass",[4]; [22],0
same,"Plant response rating, Goosegrass",[4]; [16],0
same,"Plant response rating, Goosegrass",[4]; [17],0
same,"Plant response rating, Goosegrass",[4]; [18],0
same,"Plant response rating, Bromegrass, Downy",[5]; [21],0
same,"Plant response rating, Bromegrass, Downy",[5]; [12],20
same,"Plant response rating, Bromegrass, Downy",[5]; [13],40
same,"Plant response rating, Bromegrass, Downy",[5]; [14],75
same,"Plant response rating, Bromegrass, Downy",[5]; [22],0
same,"Plant response rating, Bromegrass, Downy",[5]; [16],0
same,"Plant response rating, Bromegrass, Downy",[5]; [17],0
same,"Plant response rating, Bromegrass, Downy",[5]; [18],0
same,"Plant response rating, Guineagrass",[6]; [21],0
same,"Plant response rating, Guineagrass",[6]; [12],0
same,"Plant response rating, Guineagrass",[6]; [13],0
same,"Plant response rating, Guineagrass",[6]; [14],0
same,"Plant response rating, Guineagrass",[6]; [22],0
same,"Plant response rating, Guineagrass",[6]; [16],0
same,"Plant response rating, Guineagrass",[6]; [17],0
same,"Plant response rating, Guineagrass",[6]; [18],0
same,"Plant response rating, Bindweed, Field",[7]; [21],60
same,"Plant response rating, Bindweed, Field",[7]; [12],70
same,"Plant response rating, Bindweed, Field",[7]; [13],80
same,"Plant response rating, Bindweed, Field",[7]; [14],90
same,"Plant response rating, Bindweed, Field",[7]; [22],0
same,"Plant response rating, Bindweed, Field",[7]; [16],0
same,"Plant response rating, Bindweed, Field",[7]; [17],0
same,"Plant response rating, Bindweed, Field",[7]; [18],65
same,"Plant response rating, Chickweed",[8]; [22],0
same,"Plant response rating, Chickweed",[8]; [17],0
same,"Plant response rating, Chickweed",[8]; [18],0
same,"Plant response rating, Bermudagrass",[9]; [21],0
same,"Plant response rating, Bermudagrass",[9]; [12],20
same,"Plant response rating, Bermudagrass",[9]; [13],35
same,"Plant response rating, Bermudagrass",[9]; [14],35
same,"Plant response rating, Bermudagrass",[9]; [22],0
same,"Plant response rating, Bermudagrass",[9]; [16],0
same,"Plant response rating, Bermudagrass",[9]; [17],0
same,"Plant response rating, Bermudagrass",[9]; [18],0
same,"Plant response rating, Ragweed",[10]; [21],75
same,"Plant response rating, Ragweed",[10]; [12],75
same,"Plant response rating, Ragweed",[10]; [13],100
same,"Plant response rating, Ragweed",[10]; [14],100
same,"Plant response rating, Ragweed",[10]; [22],65
same,"Plant response rating, Ragweed",[10]; [16],65
same,"Plant response rating, Ragweed",[10]; [17],65
same,"Plant response rating, Ragweed",[10]; [18],95
